Patent US10786481B2, “Hydroquinone compounds, preparation methods therefor, and use in anti-tumor or immunomodulation therapy” (Biomedical Analysis Center, Academy of Military Medical …, priority 2016, dated 2020)

Key:
[1] = tested on: immortalized mice bone marrowmacrophages (IBMM); test: Cytotoxicity, MTS method, IBMM cell; assay type: cell-based; conditions: Mus musculus, Bone marrow macrophage, MTS method; read-out: IC50(mM) IBMM cell
Description: (§1) The toxicity of compounds is detected with MTS method in the immortalized mice bone marrowmacrophages (IBMM), mice embryonic fibroblast (NIH3t3) and humanized embryonic nephrocyte.

[2] = tested on: mice embryonic fibroblast (NIH3t3); test: Cytotoxicity, MTS method, NIH3T3 cell; assay type: cell-based; conditions: Mus musculus, NIH3T3, MTS method; read-out: IC50(mM) NIH3T3 cell
Description: as §1

[3] = tested on: humanized embryonic nephrocyte (HEK293 cell); test: Cytotoxicity, MTS method, HEK293 cell; assay type: cell-based; conditions: Homo sapiens, HEK293, MTS method; read-out: IC50(mM) HEK293 cell
Description: as §1

[4] = Release experiment of target compound in human plasma; conditions: 37° C., 5 min to 9 h
Description: Mobile phase: gradient elution; A: water; B: methanol;
Chromatographic column: CAPCEL PAK MF PH-1;
Detecting instrument: TQ-S; ion source: APCI; ion detection mode: MRM;
Dissolving the target compound with DMSO, then diluting to 5 μg/mL with the normal saline of 0.9%. The human blank plasma after subpackage is preserved at −70° C., unfreezing in a refrigerator at 4° C. when used. Take 20 μL of the blank plasma, adding 20 μL of the target compound solution as above formulated, vortexing for 15 s, and left it in the water bath at 37° C. […] Take the supernatant and inject 10 μL for detection.

Row | Compound | IC50 [1] [mM] | IC50 [2] [mM] | IC50 [3] [mM] | release of BHA in human plasma [4]
1 | COc1ccc(OC(=O)c2ccccc2)c(C(C)(C)C)c1 [XH2005, 2-tert-butyl-4-methoxyphenol benzoate] | 0.439 | 0.0875 | 0.082 | releases BHA
2 | COc1ccc(OC(=O)C2=CCCCC2)c(C(C)(C)C)c1 [XH2015, 2-tert-butyl-4-methoxyphenol cyclohexenecarboxylate] | 0.147 | 0.194 | 0.109 | releases BHA
3 | CCC(=O)Oc1ccc(OC)cc1C(C)(C)C [XH2016, 2-tert-butyl-4-methoxyphenol propionate] | 0.148 | 0.0186 | 0.065 | 
4 | C=CC(=O)Oc1ccc(OC)cc1C(C)(C)C [XH2017, 2-tert-butyl-4-methoxyphenol acrylate] | 0.56 | 0.0229 | 0.008 | 
5 | COc1ccc(OC(=O)Cc2ccc(OC)c(OC)c2)c(C(C)(C)C)c1 [XH2018, (2-tert-butyl-4-methoxyphenol) 3,4-dimethoxyphenylacetate] | 0.13 | 0.333 | 0.386 | releases BHA
6 | CC#CC(=O)Oc1ccc(OC)cc1C(C)(C)C [XH2019, 2-tert-butyl-4-methoxyphenol butynoate] | 0.024 | 0.0476 | 0.037 | releases BHA
7 | COc1ccc(OC(=O)c2ccccc2-c2ccccc2C(=O)Oc2ccc(OC)cc2C(C)(C)C)c(C(C)(C)C)c1 [XH2020, bis(2-tert-butyl-4-methoxyphenol)2,2′-biphenyldicarboxylate] |  |  |  | releases BHA
8 | COc1ccc(OC(=O)Cc2cccc(F)c2)c(C(C)(C)C)c1 [XH2022, (2-tert-butyl-4-methoxyphenol) 3-fluorophenylacetate] |  |  |  | releases BHA
9 | COc1ccc(OC(=O)Cc2c[nH]c3ccccc23)c(C(C)(C)C)c1 [XH2023, (2-tert-butyl-4-methoxyphenol) (1H-indole-3-yl)acetate] | 0.0065 | 0.065 | 0.03 | releases BHA
10 | COc1ccc(OC(=O)CCc2ccc(F)cc2)c(C(C)(C)C)c1 [XH2024, (2-tert-butyl-4-methoxyphenol) 3-(4-fluorophenyl)-propionate] |  |  |  | releases BHA
11 | COc1ccc(OC(=O)C2CCCN(C(=O)OC(C)(C)C)C2)c(C(C)(C)C)c1 (centres unmarked) [XH2025, (2-tert-butyl-4-methoxyphenol) N-tert-butoxycarbonylpiperidine-3-formate] |  |  |  | releases BHA
12 | COc1ccc(OC(=O)CCc2cccc([N+](=O)[O-])c2)c(C(C)(C)C)c1 [XH2028, (2-tert-butyl-4-methoxyphenol) 3-(3-nitrophenyl)propionate] |  |  |  | releases BHA
13 | COc1ccc(OC(=O)c2ccc(-c3ccccc3)cc2)c(C(C)(C)C)c1 [XH2029, (2-tert-butyl-4-methoxyphenol) 4-phenylbenzoate] |  |  |  | releases BHA
14 | COc1ccc(OC(=O)c2cnccc2C)c(C(C)(C)C)c1 [XH2030, (2-tert-butyl-4-methoxyphenol) 4-methylpyridine-3-formate] |  |  |  | releases BHA
15 | COc1ccc(OC(=O)c2cnccc2OC)c(C(C)(C)C)c1 [XH2031, (2-tert-butyl-4-methoxyphenol) 4-methoxypyridine-3-formate] |  |  |  | releases BHA
16 | CCCCCCCCCCCCCCCC(=O)Oc1ccc(OC)cc1C(C)(C)C [XH2033, 2-tert-butyl-4-methoxyphenol hexadecylate] |  |  |  | releases BHA
17 | COc1ccc(OC(=O)CNC(=O)OC(C)(C)C)c(C(C)(C)C)c1 [XH2034, N-tert-butoxycarbonylglycine(2-tert-butyl-4-methoxyphenol)ester] |  |  |  | releases BHA
18 | COc1ccc(OC(=O)c2ccc(Cl)c(F)c2)c(C(C)(C)C)c1 [XH2035, (2-tert-butyl-4-methoxyphenol) 3-fluoro-4-chlorobenzoate] |  |  |  | releases BHA
19 | COc1ccc(OC(=O)c2cccc(C#N)c2)c(C(C)(C)C)c1 [XH2036-2, (2-tert-butyl-4-methoxyphenol) 3-cyanobenzoate] |  |  |  | releases BHA
20 | COc1ccc(OC(=O)c2ccc3ccccc3c2)c(C(C)(C)C)c1 [XH2036-4, (2-tert-butyl-4-methoxyphenol) 2-naphthoate] | 0.23 | 0.232 | 0.253 | releases BHA
21 | COc1ccc(OC(=O)c2cc(Cl)nnc2Cl)c(C(C)(C)C)c1 [XH2038-1, (2-tert-butyl-4-methoxyphenol) 3,6-dichloropyridazine-4-formate] | 0.222 | 0.236 | 0.33 | 
22 | COc1ccc(OC(=O)c2cc3ccccc3[nH]2)c(C(C)(C)C)c1 [XH2038-3, (2-tert-butyl-4-methoxyphenol) 2-indoleformate] | 0.263 | 0.517 | 0.205 | releases BHA

Row | Compound | IC50 [1] [mM] | IC50 [2] [mM] | IC50 [3] [mM] | release of BHA in human plasma [4]
23 | COc1ccc(OC(=O)c2cccnc2Cl)c(C(C)(C)C)c1 [XH2038-4, (2-tert-butyl-4-methoxyphenol) 2-chloro-3-picolinate] |  |  |  | releases BHA
24 | COc1ccc(OC(=O)Cc2cccs2)c(C(C)(C)C)c1 [XH2038-5, (2-tert-butyl-4-methoxyphenol) 2-thiopheneacetate] | 0.202 | 0.146 | 0.266 | releases BHA
25 | COc1ccc(OC(=O)CCc2ccc(C)cc2)c(C(C)(C)C)c1 [XH2039-1, (2-tert-butyl-4-methoxyphenol) 3-(4-methylphenyl)-propionate] |  |  |  | releases BHA
26 | C#CC(=O)Oc1ccc(OC)cc1C(C)(C)C [XH2039-2, (2-tert-butyl-4-methoxyphenol) propiolate] | 0.159 | 0.248 | 0.125 | releases BHA
27 | COc1ccc(OC(=O)C(C)c2ccccc2)c(C(C)(C)C)c1 (centres unmarked) [XH2039-3, (2-tert-butyl-4-methoxyphenol) 2-phenyl propionate] |  |  |  | releases BHA
28 | COc1ccc(OC(=O)C(C)F)c(C(C)(C)C)c1 (centres unmarked) [XH2039-4, (2-tert-butyl-4-methoxyphenol) 2-fluoropropionate] |  |  |  | releases BHA
29 | COc1ccc(OC(=O)CC2CCCCC2)c(C(C)(C)C)c1 [XH2039-5, (2-tert-butyl-4-methoxyphenol) cyclohexylacetate] | 0.067 | 0.106 | 0.087 | releases BHA
30 | COc1ccc(OC(=O)CC23CC4CC(CC(C4)C2)C3)c(C(C)(C)C)c1 [XH2040-1, (2-tert-butyl-4-methoxyphenol) adamantaneacetate] |  |  |  | releases BHA
31 | COc1ccc(OC(=O)CCCCCC(C)=O)c(C(C)(C)C)c1 [XH2040-5, (2-tert-butyl-4-methoxyphenol) 7-oxooctanoate] |  |  |  | releases BHA
32 | COc1ccc(OC(=O)c2cc(I)ccc2Br)c(C(C)(C)C)c1 [XH2041-3, (2-tert-butyl-4-methoxyphenol) 2-bromo-5-iodo benzoate] |  |  |  | releases BHA
33 | COc1ccc(OC(=O)c2ccc([N+](=O)[O-])cc2F)c(C(C)(C)C)c1 [XH2041-4, (2-tert-butyl-4-methoxyphenol) 2-fluoro-4-nitryl benzoate] |  |  |  | releases BHA
34 | COc1ccc(OC(=O)C2CCCN(C(=O)OC(C)(C)C)C2)c(C(C)(C)C)c1 (centres unmarked) [XH2041-5, (2-tert-butyl-4-methoxyphenol) N-tert-butoxycarbonylpiperidine-3-formate] |  |  |  | releases BHA
35 | COc1ccc(OC(=O)CCCC(=O)c2ccccc2)c(C(C)(C)C)c1 [XH2043-1, (2-tert-butyl-4-methoxyphenol) 4-benzoyl butyrate] |  |  |  | releases BHA
36 | COc1cc(C=CC(=O)Oc2ccc(OC)cc2C(C)(C)C)cc(OC)c1 [XH2043-2, (2-tert-butyl-4-methoxyphenol) 3,5-dimethoxy phenylacrylate] |  |  |  | releases BHA
37 | COc1ccc(OC(=O)c2cc(Cl)ccn2)c(C(C)(C)C)c1 [XH2043-3, (2-tert-butyl-4-methoxyphenol) 4-chloropyridine-2-formate] |  |  |  | releases BHA
38 | COc1ccc(OC(=O)C2CCCN(C)C2)c(C(C)(C)C)c1 (centres unmarked) [XH2043-4, (2-tert-butyl-4-methoxyphenol) N-methylpiperidine-3-formate] |  |  |  | releases BHA
39 | COc1ccc(OC(=O)CCc2cc(C(C)(C)C)c(O)c(C(C)(C)C)c2)c(C(C)(C)C)c1 [XH2045-2, (2-tert-butyl-4-methoxyphenol) 3-(3,5-di-tert-butyl-4-hydroxy-phenyl)propionate] |  |  |  | releases BHA
40 | (2-tert-butyl-4-methoxyphenol) 1-methylcyclopropyl formate [XH2038-2] |  |  |  | releases BHA
41 | di(2-tert-butyl-4-methoxyphenol) adipate [XH2046-3] |  |  |  | releases BHA
42 | di(2-tert-butyl-4-methoxyphenol) malonate [XH2037] |  |  |  | releases BHA
43 | di(2-tert-butyl-4-methoxyphenol) p-phenylenediacetate [XH2042] |  |  |  | releases BHA
44 | di(2-tert-butyl-4-methoxyphenol) terephthalate [XH2026] |  |  |  | releases BHA
